In one test the test system is HMC1.1 cells (KIT V560G). The conditions noted are these: proliferation, Figure 2A and reference values; ref de Jong and Zon, 2005; Guo et al., 2007; Kampa-Shittenhelm et al., 2013; cited from earlier work.
The target in a further test is T1, purified FLT3 WT (Homo sapiens, UniProt P36888).
T1 sequence (P36888 27-993): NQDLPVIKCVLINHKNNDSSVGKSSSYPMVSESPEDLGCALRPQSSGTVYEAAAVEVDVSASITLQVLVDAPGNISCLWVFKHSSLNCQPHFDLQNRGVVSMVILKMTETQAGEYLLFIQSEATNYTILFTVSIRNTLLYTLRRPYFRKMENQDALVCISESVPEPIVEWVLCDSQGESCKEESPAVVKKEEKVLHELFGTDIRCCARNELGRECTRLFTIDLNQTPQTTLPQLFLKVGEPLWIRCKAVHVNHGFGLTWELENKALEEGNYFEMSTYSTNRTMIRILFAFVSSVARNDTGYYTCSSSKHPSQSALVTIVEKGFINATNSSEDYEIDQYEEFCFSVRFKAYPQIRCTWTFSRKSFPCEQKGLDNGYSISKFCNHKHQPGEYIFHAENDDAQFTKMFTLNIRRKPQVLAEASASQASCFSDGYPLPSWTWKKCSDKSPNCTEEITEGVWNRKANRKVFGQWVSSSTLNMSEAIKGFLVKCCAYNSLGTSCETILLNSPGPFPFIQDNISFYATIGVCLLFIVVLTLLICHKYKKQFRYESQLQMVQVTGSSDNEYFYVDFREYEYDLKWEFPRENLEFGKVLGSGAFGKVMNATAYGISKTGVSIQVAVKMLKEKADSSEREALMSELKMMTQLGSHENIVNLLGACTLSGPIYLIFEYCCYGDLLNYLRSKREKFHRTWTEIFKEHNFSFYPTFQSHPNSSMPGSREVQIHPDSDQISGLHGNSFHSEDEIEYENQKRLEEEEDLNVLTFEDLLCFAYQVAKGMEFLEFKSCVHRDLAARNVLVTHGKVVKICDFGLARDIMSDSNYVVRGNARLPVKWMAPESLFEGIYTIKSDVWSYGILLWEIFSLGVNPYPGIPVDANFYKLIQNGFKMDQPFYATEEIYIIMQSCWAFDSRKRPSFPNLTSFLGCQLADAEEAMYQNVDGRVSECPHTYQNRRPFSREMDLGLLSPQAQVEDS
Put plainly: Radiolabeled purified kinase assay (Figure 1B).

In another test the target is T2, FLT3 (Homo sapiens, UniProt P36888).
T2 sequence (P36888 27-993): T1 sequence (P36888 27-993)
The experiment in a line: Reaction Biology Corp kinase assay at Km-ATP (Figure 1C), FLT3.

For another test, the target named is CSF1R (Homo sapiens, UniProt P07333). The experiment in a line: Reaction Biology Corp kinase assay at Km-ATP (Figure 1C), CSF1R.
Another test deals with PDGFRα (Homo sapiens, UniProt P16234). The experiment in a line: Reaction Biology Corp kinase assay at Km-ATP (Figure 1C), PDGFRα.
For a further test, the target named is PDGFRβ (Homo sapiens, UniProt P09619). Put plainly: Reaction Biology Corp kinase assay at Km-ATP (Figure 1C), PDGFRβ.
The target of a further test is KIT (Homo sapiens, UniProt P10721). The experiment in a line: Reaction Biology Corp kinase assay at Km-ATP (Figure 1C), KIT.

A value given as a limit tells only on which side of the number the result lay.

KIT, sequence (P10721 26-976): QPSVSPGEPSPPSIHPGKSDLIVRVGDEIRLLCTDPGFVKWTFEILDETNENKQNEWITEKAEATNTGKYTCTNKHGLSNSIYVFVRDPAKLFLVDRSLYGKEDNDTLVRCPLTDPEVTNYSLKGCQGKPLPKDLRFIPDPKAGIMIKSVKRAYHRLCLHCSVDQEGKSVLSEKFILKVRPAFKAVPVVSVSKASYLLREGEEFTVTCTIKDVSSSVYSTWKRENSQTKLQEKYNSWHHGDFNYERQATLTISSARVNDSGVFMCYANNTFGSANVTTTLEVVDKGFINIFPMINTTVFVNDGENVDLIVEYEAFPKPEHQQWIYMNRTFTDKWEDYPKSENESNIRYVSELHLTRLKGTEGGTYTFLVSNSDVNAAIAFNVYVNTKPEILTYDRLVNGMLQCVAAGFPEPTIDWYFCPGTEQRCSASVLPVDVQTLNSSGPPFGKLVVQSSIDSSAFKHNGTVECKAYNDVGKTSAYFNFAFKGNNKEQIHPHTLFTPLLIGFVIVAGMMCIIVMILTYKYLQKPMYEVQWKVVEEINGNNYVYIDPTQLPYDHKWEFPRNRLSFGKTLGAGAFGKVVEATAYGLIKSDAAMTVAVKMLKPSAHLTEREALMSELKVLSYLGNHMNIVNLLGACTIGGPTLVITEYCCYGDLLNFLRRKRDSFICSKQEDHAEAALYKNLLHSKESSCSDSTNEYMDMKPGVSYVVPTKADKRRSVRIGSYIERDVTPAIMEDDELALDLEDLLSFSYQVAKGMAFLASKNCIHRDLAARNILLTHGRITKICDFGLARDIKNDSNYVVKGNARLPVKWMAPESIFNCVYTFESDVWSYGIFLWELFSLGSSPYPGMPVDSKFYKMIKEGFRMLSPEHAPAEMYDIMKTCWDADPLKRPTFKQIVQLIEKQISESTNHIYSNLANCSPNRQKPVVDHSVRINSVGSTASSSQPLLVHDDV
CSF1R, sequence (P07333 20-972): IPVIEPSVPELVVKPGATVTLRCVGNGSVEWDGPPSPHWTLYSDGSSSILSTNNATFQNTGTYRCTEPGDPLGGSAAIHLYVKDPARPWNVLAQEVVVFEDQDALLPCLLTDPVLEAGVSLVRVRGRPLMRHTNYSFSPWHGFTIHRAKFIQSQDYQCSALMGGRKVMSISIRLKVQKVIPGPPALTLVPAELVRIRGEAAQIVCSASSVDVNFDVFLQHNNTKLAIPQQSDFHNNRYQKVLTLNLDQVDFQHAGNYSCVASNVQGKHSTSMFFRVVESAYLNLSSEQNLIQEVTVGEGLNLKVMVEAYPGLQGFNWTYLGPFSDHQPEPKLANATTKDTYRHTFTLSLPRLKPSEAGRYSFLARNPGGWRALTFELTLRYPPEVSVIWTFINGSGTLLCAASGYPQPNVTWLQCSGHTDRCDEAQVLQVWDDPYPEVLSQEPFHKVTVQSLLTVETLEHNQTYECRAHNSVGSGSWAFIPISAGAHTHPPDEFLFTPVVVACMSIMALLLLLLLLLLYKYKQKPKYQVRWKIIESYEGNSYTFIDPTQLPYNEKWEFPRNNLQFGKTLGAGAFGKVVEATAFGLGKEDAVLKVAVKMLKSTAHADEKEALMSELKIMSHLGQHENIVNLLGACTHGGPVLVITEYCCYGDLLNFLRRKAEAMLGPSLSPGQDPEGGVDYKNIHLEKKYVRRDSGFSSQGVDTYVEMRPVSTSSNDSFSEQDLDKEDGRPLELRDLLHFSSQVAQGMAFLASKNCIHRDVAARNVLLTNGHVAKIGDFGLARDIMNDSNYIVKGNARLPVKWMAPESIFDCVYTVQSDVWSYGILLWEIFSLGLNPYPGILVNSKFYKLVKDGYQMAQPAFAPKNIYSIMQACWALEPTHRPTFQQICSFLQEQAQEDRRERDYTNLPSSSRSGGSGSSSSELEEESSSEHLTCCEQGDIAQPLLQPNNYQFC
PDGFRβ, sequence (P09619 33-1106): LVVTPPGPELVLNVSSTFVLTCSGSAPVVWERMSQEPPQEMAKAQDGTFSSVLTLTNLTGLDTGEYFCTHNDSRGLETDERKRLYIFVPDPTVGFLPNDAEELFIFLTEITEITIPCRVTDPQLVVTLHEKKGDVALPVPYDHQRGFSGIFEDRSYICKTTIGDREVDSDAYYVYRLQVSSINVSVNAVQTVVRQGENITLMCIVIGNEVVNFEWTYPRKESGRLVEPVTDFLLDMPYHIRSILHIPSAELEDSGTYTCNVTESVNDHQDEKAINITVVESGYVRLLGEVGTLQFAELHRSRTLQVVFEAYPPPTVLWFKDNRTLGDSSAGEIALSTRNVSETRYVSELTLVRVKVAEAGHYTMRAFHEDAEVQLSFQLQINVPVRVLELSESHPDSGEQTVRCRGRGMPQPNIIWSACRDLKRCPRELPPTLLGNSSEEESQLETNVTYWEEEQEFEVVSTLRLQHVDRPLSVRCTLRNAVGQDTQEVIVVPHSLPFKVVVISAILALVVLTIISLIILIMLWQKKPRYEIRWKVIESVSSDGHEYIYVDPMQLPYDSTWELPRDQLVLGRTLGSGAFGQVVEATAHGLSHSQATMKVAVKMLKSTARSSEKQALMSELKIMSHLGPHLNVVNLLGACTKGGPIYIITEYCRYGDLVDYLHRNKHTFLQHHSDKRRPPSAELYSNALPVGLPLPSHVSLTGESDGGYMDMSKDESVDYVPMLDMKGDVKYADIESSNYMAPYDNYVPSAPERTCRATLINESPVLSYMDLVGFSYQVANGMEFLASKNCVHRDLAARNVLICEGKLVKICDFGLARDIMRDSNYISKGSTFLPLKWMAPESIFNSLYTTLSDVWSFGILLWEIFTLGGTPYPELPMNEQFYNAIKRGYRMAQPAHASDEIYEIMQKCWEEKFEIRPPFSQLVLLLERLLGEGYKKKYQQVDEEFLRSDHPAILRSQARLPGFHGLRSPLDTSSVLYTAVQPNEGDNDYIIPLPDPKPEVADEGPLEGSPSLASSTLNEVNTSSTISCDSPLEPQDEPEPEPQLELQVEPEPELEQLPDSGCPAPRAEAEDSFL
PDGFRα, sequence (P16234 24-1089): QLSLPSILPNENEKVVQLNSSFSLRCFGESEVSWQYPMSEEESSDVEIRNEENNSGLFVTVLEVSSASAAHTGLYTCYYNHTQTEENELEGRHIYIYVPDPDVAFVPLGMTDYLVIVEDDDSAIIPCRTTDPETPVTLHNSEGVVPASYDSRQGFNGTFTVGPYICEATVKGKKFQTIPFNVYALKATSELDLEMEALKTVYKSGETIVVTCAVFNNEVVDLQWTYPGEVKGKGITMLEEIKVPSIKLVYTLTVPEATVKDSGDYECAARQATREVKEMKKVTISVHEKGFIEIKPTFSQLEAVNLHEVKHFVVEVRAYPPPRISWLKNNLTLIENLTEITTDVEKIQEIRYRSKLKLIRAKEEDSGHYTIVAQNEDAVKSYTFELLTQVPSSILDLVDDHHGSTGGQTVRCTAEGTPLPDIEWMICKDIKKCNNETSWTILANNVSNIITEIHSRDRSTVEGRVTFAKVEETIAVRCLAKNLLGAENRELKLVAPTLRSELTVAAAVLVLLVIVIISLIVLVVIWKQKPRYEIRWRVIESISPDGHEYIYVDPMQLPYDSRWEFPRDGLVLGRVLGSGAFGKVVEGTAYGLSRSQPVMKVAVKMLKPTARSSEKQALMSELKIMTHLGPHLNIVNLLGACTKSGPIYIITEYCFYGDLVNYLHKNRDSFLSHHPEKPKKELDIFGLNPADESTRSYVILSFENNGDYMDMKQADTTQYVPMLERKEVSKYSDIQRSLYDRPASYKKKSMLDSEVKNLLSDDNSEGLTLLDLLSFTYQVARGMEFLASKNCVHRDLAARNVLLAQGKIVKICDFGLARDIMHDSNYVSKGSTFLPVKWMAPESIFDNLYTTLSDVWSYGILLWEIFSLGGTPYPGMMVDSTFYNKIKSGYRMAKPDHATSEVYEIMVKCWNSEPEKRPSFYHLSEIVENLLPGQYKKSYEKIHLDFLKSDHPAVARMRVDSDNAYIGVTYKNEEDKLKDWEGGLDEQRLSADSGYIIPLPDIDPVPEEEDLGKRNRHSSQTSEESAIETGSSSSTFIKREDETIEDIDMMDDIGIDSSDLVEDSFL

With `Cc1ccc(C(=O)Nc2ccc(CN3CCN(C)CC3)c(C(F)(F)F)c2)cc1C#Cc1cnc2cccnn12` [Ponatinib], the “inhibition of FLT3- versus KIT-driven cell lines” value with HMC1.1 cells (KIT V560G) is “equipotent inhibition of FLT3 and KIT-driven cell lines”.
Regarding `CNC(=O)c1cc(Oc2ccc(NC(=O)Nc3ccc(Cl)c(C(F)(F)F)c3)cc2)ccn1` [Sorafenib], the “inhibition of FLT3- versus KIT-driven cell lines” value in the test on HMC1.1 cells (KIT V560G) is “equipotent inhibition of FLT3 and KIT-driven cell lines”.
Usually IC50 stands for the concentration needed to halve the response being measured. Higher therefore signals weaker potency. Turning to `CC(C)C[C@@H]1NC(=O)c2c1c1c3ccccc3[nH]c1c1[nH]c3ccccc3c21` [Star 1], the IC50 on purified FLT3 WT is > 10000 nM.
Regarding `CCC[C@@H]1NC(=O)c2c1c1c3ccccc3[nH]c1c1[nH]c3ccccc3c21` [Star 3], at purified FLT3 WT, the IC50 is > 10000 nM.
Consider `CCCC[C@@H]1NC(=O)c2c1c1c3ccccc3[nH]c1c1[nH]c3ccccc3c21` [Star 4], for which, on purified FLT3 WT, the IC50 was > 10000 nM.
For the compound `CC(C)[C@@H]1NC(=O)c2c1c1c3ccccc3[nH]c1c1[nH]c3ccccc3c21` [Star 6], the IC50 against purified FLT3 WT is 2000 nM.
Take `CC(C)(C)[C@@H]1NC(=O)c2c1c1c3ccccc3[nH]c1c1[nH]c3ccccc3c21` [Star 7]: the IC50 against purified FLT3 WT is > 10000 nM.
As for `CC[C@@H]1NC(=O)c2c1c1c3ccccc3[nH]c1c1[nH]c3ccccc3c21` [Star 8], on purified FLT3 WT, the IC50 stood at 2000 nM.
For `C#CC[C@@H]1NC(=O)c2c1c1c3ccccc3[nH]c1c1[nH]c3ccccc3c21` [Star 9], the IC50 against purified FLT3 WT was > 10000 nM.
In turn, `C[C@@H]1NC(=O)c2c1c1c3ccccc3[nH]c1c1[nH]c3ccccc3c21` [Star 22] displayed an IC50 at purified FLT3 WT of 193 ± 28 nM.
As to `C[C@@H]1NC(=O)c2c1c1c3ccccc3n(CCCCN)c1c1[nH]c3ccccc3c21` [Star 23], the IC50 on FLT3 was 9 ± 1 nM; against purified FLT3 WT, 10 ± 4 nM; against CSF1R, > 10 µM; against PDGFRα, 2000 nM; on PDGFRβ, 2800 nM; at KIT it was 6.55 µM. On KIT (ratio of Figure 1C IC50s), the “KIT/FLT3 IC50 ratio” value is given as 728.
At purified FLT3 WT, `C[C@@H]1NC(=O)c2c1c1c3ccccc3[nH]c1c1c2c2ccccc2n1CCCN` [Star 27-iso] had an IC50 of 15 ± 7 nM.

Source of the values: PMC4307180, “Overcoming myelosuppression due to synthetic lethal toxicity for FLT3-targeted acute myeloid leukemia therapy” (eLife, 2014).
